Patent publication US20230085307A1, “PYRIDAZINONE COMPOUND AND HERBICIDE” (NISSAN CHEMICAL CORPORATION, priority 2019, published 2023)

What was measured:
barnyard grass [1] = experiment: Test Example 3: herbicidal effect by foliage application, Wagner pot (Table 18, symbol H); type: in vivo, barnyard grass (Echinochloa crus-galli); settings: 320 g/ha
Summary of the method: (§1)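 Plants were sown in alluvial soil held under 0.1–0.5 cm standing water and grown 14 days in a greenhouse at 25–30 °C. An emulsifiable formulation, water-diluted to the set dose, was then sprayed onto the foliage, and effects were scored three weeks later using previously defined criteria.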

Chinese sprangletop = experiment: Test Example 3: herbicidal effect by foliage application, Wagner pot (Table 18, symbol D); type: in vivo, chinese sprangletop (Leptochloa chinensis); settings: 320 g/ha
Summary of the method: as §1

rice flat sedge = experiment: Test Example 3: herbicidal effect by foliage application, Wagner pot (Table 18, symbol E); type: in vivo, rice flat sedge (Cyperus iria); settings: 320 g/ha
Summary of the method: as §1

southern crabgrass [2] = experiment: Test Example 4: herbicidal effect by soil treatment (Table 19, symbol F); type: in vivo, southern crabgrass (Digitaria ciliaris)
Text: (§2) [Test Example 4] Herbicidal Effect Test by Soil Treatment
(§3) Sterilized diluvial soil was placed in a plastic box having a length of 21 cm, a width of 13 cm, and a depth of 7 cm. The seeds of each of southern crabgrass, green foxtail, barnyard grass, wild oat, blackgrass, Italian ryegrass, windgrass, velvetleaf, redroot pigweed, lambsquarters, chickweed, false cleavers, persian speedwell, corn, soybean, rice, wheat, beet, and rapeseed were sowed in a spot-like manner and covered with the soil having a thickness of about 1.5 cm. Subsequently, the emulsion agent of the compound of the present invention prepared according to Formulation Example 2 was diluted with water so as to achieve a predetermined herbicide amount, and the diluted emulsion agent was uniformly applied to the surface of the soil with a small-sized spray. The plastic box was placed in a greenhouse at 25° C. to 30° C. for growth of the plants. Three weeks after the herbicide application, the effect of the herbicide on each plant was evaluated according to the criteria of Test Example 1.

green foxtail [3] = experiment: Test Example 4: herbicidal effect by soil treatment (Table 19, symbol G); type: in vivo, green foxtail (Setaria viridis)
Summary of the method: (§4)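 Herbicidal effect was rated 3 weeks after treatment, using the scoring criteria of an earlier test. The compound, formulated as an emulsion and diluted in water to a set herbicide amount, had been sprayed uniformly on soil over freshly sown seeds. Growth took place in a greenhouse at 25° C. to 30° C.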

barnyard grass [4] = experiment: Test Example 4: herbicidal effect by soil treatment (Table 19, symbol H); type: in vivo, barnyard grass (Echinochloa crus-galli)
Text: as §2, §3

wild oat [5] = experiment: Test Example 4: herbicidal effect by soil treatment (Table 19, symbol I); type: in vivo, wild oat (Avena fatua)
Summary of the method: as §4

blackgrass [6] = experiment: Test Example 4: herbicidal effect by soil treatment (Table 19, symbol J); type: in vivo, blackgrass (Alopecurus myosuroides)
Text: as §2, §3

Italian ryegrass [7] = experiment: Test Example 4: herbicidal effect by soil treatment (Table 19, symbol K); type: in vivo, Italian ryegrass (Lolium multiflorum)
Text: as §2, §3

windgrass [8] = experiment: Test Example 4: herbicidal effect by soil treatment (Table 19, symbol L); type: in vivo, windgrass (Apera spica-venti)
Text: as §2, §3

velvetleaf [9] = experiment: Test Example 4: herbicidal effect by soil treatment (Table 19, symbol M); type: in vivo, velvetleaf (Abutilon theophrasti)
Text: as §2, §3

redroot pigweed [10] = experiment: Test Example 4: herbicidal effect by soil treatment (Table 19, symbol N); type: in vivo, redroot pigweed (Amaranthus retroflexus)
Summary of the method: as §4

lambsquarters [11] = experiment: Test Example 4: herbicidal effect by soil treatment (Table 19, symbol O); type: in vivo, lambsquarters (Chenopodium album)
Summary of the method: as §4

chickweed [12] = experiment: Test Example 4: herbicidal effect by soil treatment (Table 19, symbol P); type: in vivo, common chickweed (Stellaria media)
Text: as §2, §3

southern crabgrass [13] = experiment: Test Example 5: herbicidal effect by foliage application, plastic box (Table 20, symbol F); type: in vivo, southern crabgrass (Digitaria ciliaris); settings: foliage application, 320 g/ha
Summary of the method: (§5)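 Foliar spray test: emulsion formulation diluted in water to a set application rate, sprayed onto 14-day-old plants raised in diluvial soil at 25° C to 30° C under glass. Both herbicidal effect and crop effect rated visually three weeks later.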

green foxtail [14] = experiment: Test Example 5: herbicidal effect by foliage application, plastic box (Table 20, symbol G); type: in vivo, green foxtail (Setaria viridis); settings: foliage application, 320 g/ha
Summary of the method: as §5

barnyard grass [15] = experiment: Test Example 5: herbicidal effect by foliage application, plastic box (Table 20, symbol H); type: in vivo, barnyard grass (Echinochloa crus-galli); settings: foliage application, 320 g/ha
Summary of the method: as §5

wild oat [16] = experiment: Test Example 5: herbicidal effect by foliage application, plastic box (Table 20, symbol I); type: in vivo, wild oat (Avena fatua); settings: foliage application, 320 g/ha
Summary of the method: as §5

blackgrass [17] = experiment: Test Example 5: herbicidal effect by foliage application, plastic box (Table 20, symbol J); type: in vivo, blackgrass (Alopecurus myosuroides); settings: foliage application, 320 g/ha
Summary of the method: as §5

Italian ryegrass [18] = experiment: Test Example 5: herbicidal effect by foliage application, plastic box (Table 20, symbol K); type: in vivo, Italian ryegrass (Lolium multiflorum); settings: foliage application, 320 g/ha
Summary of the method: as §5

windgrass [19] = experiment: Test Example 5: herbicidal effect by foliage application, plastic box (Table 20, symbol L); type: in vivo, windgrass (Apera spica-venti); settings: foliage application, 320 g/ha
Summary of the method: as §5

velvetleaf [20] = experiment: Test Example 5: herbicidal effect by foliage application, plastic box (Table 20, symbol M); type: in vivo, velvetleaf (Abutilon theophrasti); settings: foliage application, 320 g/ha
Summary of the method: as §5

lambsquarters [21] = experiment: Test Example 5: herbicidal effect by foliage application, plastic box (Table 20, symbol O); type: in vivo, lambsquarters (Chenopodium album); settings: foliage application, 320 g/ha
Summary of the method: as §5

persian speedwell = experiment: Test Example 5: herbicidal effect by foliage application, plastic box (Table 20, symbol R); type: in vivo, Persian speedwell (Veronica persica); settings: foliage application, 320 g/ha
Summary of the method: as §5

redroot pigweed [22] = experiment: Test Example 5: herbicidal effect by foliage application, plastic box (Table 20, symbol N); type: in vivo, redroot pigweed (Amaranthus retroflexus); settings: foliage application, 320 g/ha, three weeks after application
Summary of the method: as §5

chickweed [23] = experiment: Test Example 5: herbicidal effect by foliage application, plastic box (Table 20, symbol P); type: in vivo, common chickweed (Stellaria media); settings: foliage application, 320 g/ha, three weeks after application
Summary of the method: as §5

[24] = amount of applied herbicide 320 g/ha

For `Cc1nn(C)c(=O)c(-c2c(-c3ccc(CSC(C)C)cc3)sc3ccccc23)c1O` [1-243], the “herbicidal effect on H (barnyard grass), rating 0-5” value (barnyard grass [1]) was 5 (Herbicidal rate of 90% or more (almost completely withered)), the “herbicidal effect on D (Chinese sprangletop), rating 0-5” value (Chinese sprangletop) was 4 (Herbicidal rate of 70% or more and less than 90%) and the “herbicidal effect on E (rice flat sedge), rating 0-5” value (rice flat sedge) was 4 (Herbicidal rate of 70% or more and less than 90%). For the same compound, the “F: southern crabgrass, herbicidal effect rating” value (southern crabgrass [2]; AAH 320 g/ha) was 0 (Herbicidal rate of 5% or less (almost no effect)), the “G: green foxtail, herbicidal effect rating” value (green foxtail [3]; AAH 320 g/ha) was 0 (Herbicidal rate of 5% or less (almost no effect)) and the “H: barnyard grass, herbicidal effect rating” value (barnyard grass [4]; AAH 320 g/ha) was 0 (Herbicidal rate of 5% or less (almost no effect)). The “I: wild oat, herbicidal effect rating” value (wild oat [5]; AAH 320 g/ha) was 0 (Herbicidal rate of 5% or less (almost no effect)), the “J: blackgrass, herbicidal effect rating” value (blackgrass [6]; AAH 320 g/ha) was 0 (Herbicidal rate of 5% or less (almost no effect)) and the “K: Italian ryegrass, herbicidal effect rating” value (Italian ryegrass [7]; AAH 320 g/ha) was 0 (Herbicidal rate of 5% or less (almost no effect)). For the same compound, the “L: windgrass, herbicidal effect rating” value (windgrass [8]; AAH 320 g/ha) was 0 (Herbicidal rate of 5% or less (almost no effect)), the “M: velvetleaf, herbicidal effect rating” value (velvetleaf [9]; AAH 320 g/ha) was 1 (Herbicidal rate of 5% or more and less than 20%) and the “N: redroot pigweed, herbicidal effect rating” value (redroot pigweed [10]; AAH 320 g/ha) was 4 (Herbicidal rate of 70% or more and less than 90%). The “O: lambsquarters, herbicidal effect rating” value (lambsquarters [11]; AAH 320 g/ha) was 3 (Herbicidal rate of 40% or more and less than 70%), the “P: chickweed, herbicidal effect rating” value (chickweed [12]; AAH 320 g/ha) was 0 (Herbicidal rate of 5% or less (almost no effect)) and the “effect on southern crabgrass (F)” value (southern crabgrass [13]; 3 weeks after application) was 3 (Herbicidal rate of 40% or more and less than 70%). The “effect on green foxtail (G)” value (green foxtail [14]; 3 weeks after application) was 4 (Herbicidal rate of 70% or more and less than 90%), the “effect on barnyard grass (H)” value (barnyard grass [15]; 3 weeks after application) was 4 (Herbicidal rate of 70% or more and less than 90%) and the “effect on wild oat (I)” value (wild oat [16]; 3 weeks after application) was 2 (Herbicidal rate of 20% or more and less than 40%). For the same compound, the “effect on blackgrass (J)” value (blackgrass [17]; 3 weeks after application) was 2 (Herbicidal rate of 20% or more and less than 40%), the “effect on Italian ryegrass (K)” value (Italian ryegrass [18]; 3 weeks after application) was 3 (Herbicidal rate of 40% or more and less than 70%) and the “effect on windgrass (L)” value (windgrass [19]; 3 weeks after application) was 0 (Herbicidal rate of 5% or less (almost no effect)). The “effect on velvetleaf (M)” value (velvetleaf [20]; 3 weeks after application) was 5 (Herbicidal rate of 90% or more (almost completely withered)), the “effect on lambsquarters (O)” value (lambsquarters [21]; 3 weeks after application) was 4 (Herbicidal rate of 70% or more and less than 90%) and the “effect on persian speedwell (R)” value (persian speedwell; 3 weeks after application) was 5 (Herbicidal rate of 90% or more (almost completely withered)).
For `COc1ccccc1-c1sc2cc(OCCS(C)(=O)=O)ccc2c1-c1c(O)c(C)nn(C)c1=O` [3-127], the “herbicidal effect on barnyard grass (H)” value (barnyard grass [1]) was 4 (Herbicidal rate of 70% or more and less than 90%), the “herbicidal effect on Chinese sprangletop (D)” value (Chinese sprangletop) was 3 (Herbicidal rate of 40% or more and less than 70%) and the “herbicidal effect on rice flat sedge (E)” value (rice flat sedge) was 5 (Herbicidal rate of 90% or more (almost completely withered)). For the same compound, the “F: southern crabgrass, herbicidal effect grade” value (southern crabgrass [2]; [24]) was 0 (Herbicidal rate of 5% or less (almost no effect)), the “G: green foxtail, herbicidal effect grade” value (green foxtail [3]; [24]) was 0 (Herbicidal rate of 5% or less (almost no effect)) and the “H: barnyard grass, herbicidal effect grade” value (barnyard grass [4]; [24]) was 0 (Herbicidal rate of 5% or less (almost no effect)). The “I: wild oat, herbicidal effect grade” value (wild oat [5]; [24]) was 0 (Herbicidal rate of 5% or less (almost no effect)), the “J: blackgrass, herbicidal effect grade” value (blackgrass [6]; [24]) was 3 (Herbicidal rate of 40% or more and less than 70%) and the “K: Italian ryegrass, herbicidal effect grade” value (Italian ryegrass [7]; [24]) was 4 (Herbicidal rate of 70% or more and less than 90%). For the same compound, the “L: windgrass, herbicidal effect grade” value (windgrass [8]; [24]) was 5 (Herbicidal rate of 90% or more (almost completely withered)), the “M: velvetleaf, herbicidal effect grade” value (velvetleaf [9]; [24]) was 0 (Herbicidal rate of 5% or less (almost no effect)) and the “N: redroot pigweed, herbicidal effect grade” value (redroot pigweed [10]; [24]) was 0 (Herbicidal rate of 5% or less (almost no effect)). The “O: lambsquarters, herbicidal effect grade” value (lambsquarters [11]; [24]) was 0 (Herbicidal rate of 5% or less (almost no effect)), the “P: chickweed, herbicidal effect grade” value (chickweed [12]; [24]) was 1 (Herbicidal rate of 5% or more and less than 20%) and the “F: southern crabgrass, herbicidal effect grade” value (southern crabgrass [13]; three weeks after application) was 5 (Herbicidal rate of 90% or more (almost completely withered)). The “G: green foxtail, herbicidal effect grade” value (green foxtail [14]; three weeks after application) was 5 (Herbicidal rate of 90% or more (almost completely withered)), the “H: barnyard grass, herbicidal effect grade” value (barnyard grass [15]; three weeks after application) was 3 (Herbicidal rate of 40% or more and less than 70%) and the “I: wild oat, herbicidal effect grade” value (wild oat [16]; three weeks after application) was 4 (Herbicidal rate of 70% or more and less than 90%). The “J: blackgrass, herbicidal effect grade” value (blackgrass [17]; three weeks after application) was 5 (Herbicidal rate of 90% or more (almost completely withered)), the “K: Italian ryegrass, herbicidal effect grade” value (Italian ryegrass [18]; three weeks after application) was 4 (Herbicidal rate of 70% or more and less than 90%) and the “L: windgrass, herbicidal effect grade” value (windgrass [19]; three weeks after application) was 5 (Herbicidal rate of 90% or more (almost completely withered)). For the same compound, the “M: velvetleaf, herbicidal effect grade” value (velvetleaf [20]; three weeks after application) was 5 (Herbicidal rate of 90% or more (almost completely withered)), the “N: redroot pigweed, herbicidal effect grade” value (redroot pigweed [22]) was 5 (Herbicidal rate of 90% or more (almost completely withered)) and the “O: lambsquarters, herbicidal effect grade” value (lambsquarters [21]; three weeks after application) was 4 (Herbicidal rate of 70% or more and less than 90%). The “P: chickweed, herbicidal effect grade” value (chickweed [23]) was 5 (Herbicidal rate of 90% or more (almost completely withered)) and the “R: persian speedwell, herbicidal effect grade” value (persian speedwell; three weeks after application) was 5 (Herbicidal rate of 90% or more (almost completely withered)).
